{
  "source": "patent US11877996B1",
  "about": "(priority 2023, dated 2024)",
  "key": {"[1]": {"biological_target": "T1, PfGS-I (P. falciparum glutamine synthetase, MBP-fused) (Plasmodium falciparum, UniProt W7JM41)", "T1 sequence (W7JM41 1-544)": "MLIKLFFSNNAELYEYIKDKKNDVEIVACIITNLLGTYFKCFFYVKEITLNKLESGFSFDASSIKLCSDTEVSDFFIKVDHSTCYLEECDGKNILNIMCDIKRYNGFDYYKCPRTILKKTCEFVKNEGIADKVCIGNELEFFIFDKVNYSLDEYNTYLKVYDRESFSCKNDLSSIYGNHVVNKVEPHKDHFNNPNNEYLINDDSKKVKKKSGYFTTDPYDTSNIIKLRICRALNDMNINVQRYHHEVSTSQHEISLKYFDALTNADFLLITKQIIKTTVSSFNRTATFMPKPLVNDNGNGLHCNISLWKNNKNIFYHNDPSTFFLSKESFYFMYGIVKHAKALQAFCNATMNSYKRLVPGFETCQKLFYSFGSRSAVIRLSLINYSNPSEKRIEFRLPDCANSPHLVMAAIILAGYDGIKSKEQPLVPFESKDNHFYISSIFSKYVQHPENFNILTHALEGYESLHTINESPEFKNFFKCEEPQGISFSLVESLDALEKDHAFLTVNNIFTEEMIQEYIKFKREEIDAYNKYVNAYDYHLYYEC", "experiment": "Glutamine synthetase assay (Glutamine/Glutamate-GLO), PfGS-I", "format": "biochemical", "description": "(§1) The activity and inhibition profiles of purified MBP-fused PfGS-I or human GS-II (hGS-II) (BioVision Inc., Milpitas, CA, USA) in the presence or absence of AST were estimated from glutamine production using Glutamine/Glutamate-GLO™ Assay Kit (Promega, Madison, WI). The assay mixture (50 mM imidazole-HCl buffer (pH 7.0), 7.6 mM ATP, 50 mM magnesium chloride, 50 mM ammonium chloride) with or without the indicated concentration of GS enzyme was preincubated in the presence or absence of the indicated concentrations of AST for 15 min at room temperature. The reaction was initiated by addition of L-glutamate at 0.1 mM, final concentration. The reaction mixtures were incubated at 37° C. with shaking at 300 rpm for indicated time. The reactions were terminated by chilling the reaction mixture in ice water and filtered with 30 kDa Amicon Ultra centrifugal filters at 4° C. Glutamate concentrations in the filtered samples were determined using Glutamine/Glutamate-GLO™ Assay as instructed in the kit's manual, from which glutamine concentrations were estimated by subtracting the glutamate concentrations from the initial concentrations (0.1 mM). The half maximal effective concentration (EC50) of AST for PfGS-I was calculated using Sigma Plot (Systat Software, Inc., Sun Jose, CA)."}, "human GS-II (hGS-II)": {"biological_target": "T2, human GS-II (hGS-II) (Homo sapiens, UniProt P15104)", "T2 construct": "purchased BioVision Inc", "T2 sequence (P15104 whole entry)": "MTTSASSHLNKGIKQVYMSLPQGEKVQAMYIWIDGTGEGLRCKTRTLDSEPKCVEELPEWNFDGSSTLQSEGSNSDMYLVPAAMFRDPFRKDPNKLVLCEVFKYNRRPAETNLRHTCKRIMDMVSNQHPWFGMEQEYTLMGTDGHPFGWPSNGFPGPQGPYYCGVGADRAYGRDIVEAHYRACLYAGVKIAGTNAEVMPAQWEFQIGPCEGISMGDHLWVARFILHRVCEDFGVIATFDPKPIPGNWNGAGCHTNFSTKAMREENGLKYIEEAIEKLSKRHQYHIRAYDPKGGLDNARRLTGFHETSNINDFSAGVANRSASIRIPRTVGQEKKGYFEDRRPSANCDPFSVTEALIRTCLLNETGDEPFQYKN", "experiment": "Glutamine synthetase assay (Glutamine/Glutamate-GLO), human GS-II", "format": "biochemical", "settings": "1 μM AST, 1 μM hGS-II, 30 min", "description": "as §1"}, "[2]": {"system": "asexual-stage P. falciparum", "experiment": "Antimalarial activity on the asexual stage of P. falciparum (parasitemia in infected red blood cells)", "format": "cell-based, Plasmodium falciparum", "description": "3-5-day cultured P. falciparum-infected red blood cells (iRBCs) were mixed with fresh human RBCs (AB+ type) in complete RPMI 1640 to prepare cultures with 0.5% parasitemia and 2% hematocrit. AST was dissolved in DMSO. […] The plate was incubated in a candle jar at 37° C. Approximately 48 h later, the medium was replaced with fresh medium containing the same concentration of AST. Parasitemia was recorded on day 4 post-incubation."}, "[3]": {"system": "sexual-stage P. falciparum transmission to Anopheles gambiae", "experiment": "Transmission-blocking standard membrane feeding assay (SMFA), oocysts in An. gambiae midguts", "format": "in vivo, Plasmodium falciparum", "description": "P. falciparum (NF54) was cultured in the complete RPMI-1640 containing 4% new O+ human red blood cells, 10% human AB+ serum, and 12.5 μg/ml of hypoxanthine in a candle jar at 37° C. Standard membrane feeding assays (SMFA) were used to examine the efficacy of AST. In brief, 10 ml of day-15 cultured P. falciparum containing ˜2% stage V gametocytes in a 15 ml centrifuge tube was centrifuged at 650×g for 5 min at RT. After the supernatant was removed, the cells were re-suspended in 1 ml of pre-warmed human AB− serum (37° C.), to which 1 ml of O+ hematocrit was added. […] The unfed mosquitoes were removed, and the engorged mosquitoes were maintained with 10% sugar in the insectary. Seven days post-infection, the midguts were dissected and stained with 0.1% mercury dibromofluorescein salt in PBS for 30 minutes. The number of oocysts was counted under a 10× light microscope."}, "[4]": {"system": "Anopheles gambiae mosquitoes", "experiment": "Mosquito mortality observed in SMFA (insecticidal activity)", "format": "in vivo", "settings": "0.1 to 3 μM in blood meal", "description": "P. falciparum (NF54) was cultured in the complete RPMI-1640 containing 4% new O+ human red blood cells, 10% human AB+ serum, and 12.5 μg/ml of hypoxanthine in a candle jar at 37° C. Standard membrane feeding assays (SMFA) were used to examine the efficacy of AST. In brief, 10 ml of day-15 cultured P. falciparum containing ˜2% stage V gametocytes in a 15 ml centrifuge tube was centrifuged at 650×g for 5 min at RT. After the supernatant was removed, the cells were re-suspended in 1 ml of pre-warmed human AB− serum (37° C.), to which 1 ml of O+ hematocrit was added. 300 μl of the resulting infected blood were mixed with 2 μl of AST at different concentrations, yielding a final concentration of 0, 0.1, 0.3, 1, or 3 μM, which was fed a hundred 3-5-day-old female mosquitoes for 30 minutes. The unfed mosquitoes were removed, and the engorged mosquitoes were maintained with 10% sugar in the insectary. Seven days post-infection, the midguts were dissected and stained with 0.1% mercury dibromofluorescein salt in PBS for 30 minutes. The number of oocysts was counted under a 10× light microscope."}, "[5]": {"system": "macrophage-like cells differentiated from THP-1"}, "[6]": {"system": "human cell lines (HEK293, THP-1, macrophage, HepG2, Caco-2)"}, "[7]": {"system": "human cell lines (HEK293, THP-1, macrophage, HepG2, Caco-2)", "experiment": "MTT cytotoxicity assay, five human cell lines overall"}, "[8]": {"system": "human cell lines (HEK293, THP-1, macrophage, HepG2, Caco-2)", "experiment": "Stability in culture media and human cell lysates (arsenic speciation by HPLC-ICP-MS)", "settings": "100 μM AST, 48 h, five human cell lines"}},
  "note": "“Also recorded” adds a separate entry of the source.",
  "data": [
    {"smiles": "C[As](=O)(O)CC[C@H](N)C(=O)O", "note": "[AST, 2-amino-4-(hydroxymethylarsinoyl)butanoate]", "values": [
      {"measurement": "EC50", "setting": "[1]; 0.5 μM PfGS-I, 2 hours, read-out: EC50 for PfGS-I inhibition", "result": 400, "unit": "nM"},
      {"measurement": "reduction of PfGS-I activity", "setting": "[1]; 1 μM AST", "result": "more than 60%"},
      {"measurement": "activity of PfGS-I compared with the control without AST treatment", "setting": "[1]; 1 μM AST, 1 μM PfGS-I, 30 min", "result": "less than 40%"},
      {"measurement": "inhibition of PfGS-I activity", "setting": "[1]; AST at 100 μM", "result": "completely inhibits"},
      {"measurement": "effect on hGS-II activity", "setting": "human GS-II (hGS-II)", "result": "did not significantly reduce; also recorded: little effect"},
      {"measurement": "inhibition of P. falciparum proliferation in blood", "setting": "[2]; AST at 100 μM", "result": "completely inhibits"},
      {"measurement": "EC50", "setting": "[2]; infected human blood, 0.5% parasitemia, 2% hematocrit, day 4, read-out: EC50 in inhibiting asexual-stage P. falciparum (50% of parasitemia rate vs AST-free control)", "result": 13.9, "unit": "µM"},
      {"measurement": "inhibition of P. falciparum transmission to An. gambiae compared to PT and MSO", "setting": "[3]; 3 μM, SMFA, oocysts day 7", "result": "significantly inhibits"},
      {"measurement": "inhibition of malaria transmission", "setting": "[3]; 3 μM, SMFA, oocysts day 7", "result": "completely inhibited"},
      {"measurement": "inhibition of transmission to mosquitoes", "setting": "[3]; AST at 100 μM", "result": "completely inhibits"},
      {"measurement": "EC50", "setting": "[3]; SMFA, An. gambiae, oocysts day 7 post-infection, read-out: EC50 in blocking transmission of sexual-stage P. falciparum to mosquitos (50% of oocysts per mosquito vs control)", "result": 340, "unit": "nM"},
      {"measurement": "dead mosquitoes (insecticidal activity)", "setting": "[4]", "result": "no dead mosquitoes were observed"},
      {"measurement": "CC50", "setting": "HEK293 cells", "result": "> 250", "unit": "µM"},
      {"measurement": "CC50", "setting": "THP-1 cells", "result": "> 250", "unit": "µM"},
      {"measurement": "CC50", "setting": "[5]", "result": "> 250", "unit": "µM"},
      {"measurement": "CC50", "setting": "HepG2 cells", "result": "> 250", "unit": "µM"},
      {"measurement": "CC50", "setting": "Caco-2 cells", "result": "150 to 200", "unit": "µM"},
      {"measurement": "permeability (total arsenic levels in cells)", "setting": "[6]", "result": "permeable to cytomembrane"},
      {"measurement": "permeability to HepG2 cells", "setting": "[6]", "result": "moderately permeable"},
      {"measurement": "effect on viability of the tested human cell lines", "setting": "[7]; AST at 100 μM, most of the tested cell lines", "result": "little effect"},
      {"measurement": "times less cytotoxic than As(III)", "setting": "[7]; ratio of LC50 values, human cell lines", "result": "> 10", "unit": "times"},
      {"measurement": "arsenic species in culture media and cell lysates (stability)", "setting": "[8]", "result": "almost exclusively AST"}
    ]}
  ]
}
